Experimental data published in patent US11696913B2, “Prolonged ectoparasite-controlling agent for animal” (MITSUI CHEMICALS AGRO, INC., priority 2017, dated 2023).

Key:
[1] = test system: Rhipicephalus (Boophilus) microplus; experiment: In vitro injection test with Rhipicephalus (Boophilus) microplus (BOOPMI Inj); conditions: 168 h, laid fertile eggs after 7 days, read-out: acaricidal activity; for pest or weed control at 0.00016 mg: dose 0.16 μg/animal injected; for pest or weed control at 0.0008 mg: dose 0.8 μg/animal injected; for pest or weed control at 32 ng: dose 0.032 μg/animal injected
Outline: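 Five engorged adult females each get a 1 μl abdominal injection of compound dissolved and diluted in DMSO. Kept 7 days at 28° C./85% rel. hum.; percent activity rates egg laying and egg fertility (0% all fertile, 100% none laid or infertile).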

[2] = test system: Ctenocephalides felis; experiment: Ctenocephalides felis in-vitro feeding test with fleas (CTECFE oral); conditions: 48 hours, read-out: insecticidal feeding activity; for pest or weed control at 0.16 ppm: dose 0.16 ppm in citrated cattle blood; for pest or weed control at 0.8 ppm: dose 0.8 ppm in citrated cattle blood; for pest or weed control at 4 ppm: dose 4 ppm in citrated cattle blood
Outline: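 Scored as percent fleas killed (0–100%) 48 hours after feeding began. Compound, dissolved in DMSO and diluted into citrated cattle blood, was offered via a parafilm membrane to roughly 20 adult male and female C. felis at about 37° C.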

[3] = test system: Plutella xylostella; experiment: Insecticidal testing against diamondback moth; assay type: in vivo; conditions: foliar, 144 h, concentration 100 ppm, cabbage leaf dip, third-stage larvae, after 6 days, read-out: pesticidal rate
Description: Insecticidal Testing Against Diamondback Moth (Plutella xylostella)

[4] = test system: Amblyomma americanum; experiment: In vitro contact test with hard ticks (Amblyomma americanum nymphs); conditions: read-out: acaricidal activity; for pest or weed control at 0.2 µg/cm2, 0.2 µg/cm2: dose 0.2 μg/cm^2, 48 h; for pest or weed control at 1 µg/cm2, 1 µg/cm2: dose 1 μg/cm^2, 48 h
Outline: (§1)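 Acaricidal activity = % ticks dead or moribund after 48 h contact with acetone-deposited compound on vial walls (e.g., 900 ppm solution → 5 μg/cm^2). Ambient conditions for R. sanguineus, 21° C./85% rel. hum. for other species; heat challenge at 45-50° C. separated climbers from moribund ticks.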

[5] = test system: Ctenocephalides felis; experiment: In vitro contact test with fleas; conditions: read-out: insecticidal activity; for pest or weed control at 0.04 µg/cm2, 0.04 µg/cm2: dose 0.04 μg/cm^2, dead or moribund fleas after 48 h; for pest or weed control at 0.2 µg/cm2, 0.2 µg/cm2: dose 0.2 μg/cm^2, dead or moribund fleas after 48 h; for pest or weed control at 1 µg/cm2, 1 µg/cm2: dose 1 μg/cm^2, dead or moribund fleas after 48 h
Outline: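 Activity is the percentage of fleas dead or moribund at 48 h, judged by immobility or uncoordinated movement after tapping. Tubes were coated by evaporating acetone solutions (900 ppm gives 5 μg/cm^2), then held 5-10 adult fleas of both sexes at room temperature and ambient humidity.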

[6] = test system: Laodelphax striatellus; experiment: Insecticidal testing against small brown planthopper; assay type: in vivo; conditions: 144 h, concentration 100 ppm, sprayed rice seedlings, after 6 days, read-out: pesticidal rate
Experimental: Insecticidal Testing Against Small Brown Planthopper (Laodelphax striatellus)
An additional test was carried out with 10 small brown planthoppers by preparing an acetone solution of the testing compound diluted to a predetermined concentration, spraying the solution onto rice seedlings and air drying the rice seedlings. The medicament was all used as received. The rice seedlings were placed in a constant-temperature room at 25° C., and the survival rate was investigated after 6 days. The test was carried out by means of one group of 10 pests.

[7] = test system: Rhipicephalus sanguineus; experiment: In vitro contact test with adult hard ticks (Rhipicephalus sanguineus); conditions: read-out: acaricidal activity; for pest or weed control at 1 µg/cm2, 1 µg/cm2: dose 1 μg/cm^2, 48 h; for pest or weed control at 0.2 µg/cm2, 0.2 µg/cm2: dose 0.2 μg/cm^2, 48 h
Outline: as §1

[8] = test system: Spodoptera litura; experiment: Insecticidal testing against common cutworm; assay type: in vivo; conditions: foliar, 144 h, concentration 100 ppm, cabbage leaf dip, second-stage larvae, after 6 days, read-out: pesticidal rate
Description: Insecticidal Testing Against Common Cutworm (Spodoptera litura)

[9] = test system: Dermacentor variabilis; experiment: In vitro contact test with adult hard ticks (Dermacentor variabilis); conditions: read-out: acaricidal activity; for pest or weed control at 0.2 µg/cm2, 0.2 µg/cm2: dose 0.2 μg/cm^2, 48 h; for pest or weed control at 1 µg/cm2, 1 µg/cm2: dose 1 μg/cm^2, 48 h
Outline: as §1

Compound	pest or weed control at 0.00016 mg [1]	pest or weed control at 0.0008 mg [1]	pest or weed control at 0.16 ppm [2]	pest or weed control at 0.8 ppm [2]	pest or weed control at 4 ppm [2]	pest or weed control at 100 ppm [3]	pest or weed control at 0.2 µg/cm2, 0.2 µg/cm2 [4]	pest or weed control at 1 µg/cm2, 1 µg/cm2 [4]	pest or weed control at 0.04 µg/cm2, 0.04 µg/cm2 [5]	pest or weed control at 0.2 µg/cm2, 0.2 µg/cm2 [5]	pest or weed control at 1 µg/cm2, 1 µg/cm2 [5]	pest or weed control at 100 ppm [6]	pest or weed control at 1 µg/cm2, 1 µg/cm2 [7]	pest or weed control at 100 ppm [8]	pest or weed control at 0.2 µg/cm2, 0.2 µg/cm2 [9]	pest or weed control at 1 µg/cm2, 1 µg/cm2 [9]	pest or weed control at 32 ng [1]	pest or weed control at 0.032 ppm ([2]; dose 0.032 ppm in citrated cattle blood)	pest or weed control at 0.2 µg/cm2, 0.2 µg/cm2 [7]	pest or weed control at 0.04 µg/cm2, 0.04 µg/cm2 ([7]; dose 0.04 μg/cm^2, 48 h)
CN(C(=O)c1ccc(F)c(F)c1)c1cccc(C(=O)Nc2c(Br)cc(C(F)(C(F)(F)F)C(F)(F)F)cc2OC(F)(F)F)c1F [Compound 100]	100%	100%	95%	95%	95%	≥ 70%	90%	90%	95%	95%	95%	≥ 70%	90%	≥ 70%	90%	90%				
CN(C(=O)c1ccc(C(F)F)nc1)c1cccc(C(=O)Nc2c(I)cc(C(F)(C(F)(F)F)C(F)(F)F)cc2C(F)(F)F)c1F [Compound 87]	100%	100%	95%	95%	95%	≥ 70%	90%	90%	95%	95%	95%	≥ 70%		≥ 70%	90%	90%	100%	95%		
CN(C(=O)c1ccc(F)c(F)c1)c1cccc(C(=O)Nc2c(I)cc(C(F)(C(F)(F)F)C(F)(F)C(F)(F)F)cc2C(F)(F)F)c1F (stereo not drawn) [Compound 77]	100%	100%	95%	95%	95%	≥ 70%		90%		95%	95%	≥ 70%	90%	≥ 70%	90%	90%	100%			
CN(C(=O)c1ccc(C#N)nc1)c1cccc(C(=O)Nc2c(I)cc(C(F)(C(F)(F)F)C(F)(F)F)cc2C(F)(F)F)c1F [Compound 57]	100%	100%	95%	95%	95%	≥ 70%		90%	95%	95%	95%	≥ 70%	90%	≥ 70%	90%	90%	100%		90%	
O=C(Nc1cccc(C(=O)Nc2c(I)cc(C(F)(C(F)(F)F)C(F)(F)C(F)(F)F)cc2C(F)(F)F)c1F)c1ccc(Cl)c(Cl)c1 (stereo not drawn) [Compound 76]	100%	100%		95%	95%	≥ 70%		90%				≥ 70%	90%	≥ 70%	90%	90%			90%	90%
